Results on one compound are retold here after patent publication US20250199015A1, “CYCLIN-DEPENDENT KINASE 2 INHIBITORS FOR MEDICAL TREATMENT” (INCYCLIX BIO, LLC, priority 2022, published 2025).

Test [1] has as its system OVCAR-3 cells. Kind of test: CellTiter Glo cell proliferation assay. The class given is cell-based, human. Conditions: Homo sapiens, OVCAR-3, 144 h; six days. The procedure: Plates were returned to the incubator for six additional days. On day six post dosing, plates were removed and treated with CellTiter Glo reagent following manufacturer's specifications. Plates were incubated 45 minutes at room temperature and run on Biotek luminometer with 1 sec/well detection. Results were converted to Microsoft Excel and transferred to Graphpad Prism for analysis. […] These cell types are distinguished by either gained of cyclin E1 expression or activation (Kuramochi) or intrinsic amplification of cyclin E1 (OVCAR-3, COV318).
In a similar manner, OVCAR-3 cells were grown in RPMI-1640, 1× Glutamax, 10% FBS and 1×ITS at 37° C., 5% CO2. Cells were plated at 500 cells per well in white wall/clear bottom plates and incubated overnight. […] Plates returned to incubator for six additional days. On day six post dosing, plates were removed and treated with CellTiter Glo reagent following manufacturer's specifications. Plates were incubated 45 minutes at room temperature and run on Biotek luminometer with 1 sec/well detection. Results were converted to Microsoft Excel and transferred to GraphPad Prism for analysis.
In general terms: ATP-based viability assays read luminescence as a measure of living cells.

Another test has as its system FUOV-1 cells. As to the kind of experiment: CellTiter-Glo cell proliferation assay. Type of test: cell-based. The following applies: Homo sapiens, 144 h; 6 days; read-out: IC50 in FUOV1 cells. The procedure:
The Kuramochi human ovarian carcinoma cell line was grown in RPMI-1640/1× Glutamax/10% fetal bovine serum and the FUOV-1 human ovarian carcinoma cell line was grown in DMEM/F12/1× Glutamax/10% fetal bovine serum and both were plated at 1,000 cells/well in Corning 96 well white wall/clear bottom tissue culture treated plates. […] Plates were removed from incubator at each specified timepoint and treated with CellTiter-Glo (Promega, Inc) following manufacturer specifications. Plates were then read on CLARIOstar luminometer with 1 sec/well integration. Results were converted to Microsoft Excel and transferred to GraphPad Prism for Analysis (FIG. 16A-B).

The subject of test [2] is OVCAR-3 cells. As to the kind of experiment: Cell cycle by EdU flow cytometry (dose, time, washout, tracing). The class given is cell-based, human. Conditions: 600 nM. The procedure:
Cells were plated at 100,000 cells/well in Corning 6 cm tissue culture treated plates. […] Cells were collected and fixed in 1% paraformaldehyde. Cells were incubated with Alexa488 azide dye as described by Thermo Scientific. Cells were then incubated with Fxcycle-violet and RNase. Cells were analyzed on a BD Celesta and data compiled using FloJo and GraphPad.
The OVCAR3 human ovarian carcinoma cell line was grown in RPMI-1640/1× Glutamax/1× Insulin/10% fetal bovine serum and was plated at 300,000 cells/well in Corning 6 cm tissue culture treated plates. […] Cells were treated for the indicated amount of time (24 hours or 48 hours), with 10 μM EdU added for the last hour of treatment. Cells were collected and fixed in 1% paraformaldehyde. Cells were incubated with Alexa 488 (A488) azide dye as described by Thermo Scientific. Cells were then incubated with FarRed dye and RNase. Cells were analyzed on a BD Celesta and data compiled using FloJo and GraphPad Prism (FIG. 13A-B).
The OVCAR3 human ovarian carcinoma cell line was grown in RPMI-1640/1× Glutamax/1× Insulin/10% fetal bovine serum and was plated at 300,000 cells/well in Corning 6 cm tissue culture treated plates. […] At 24 hours, the remaining plates were rinsed with media before un-treated media was added back. Cells were collected at the indicated times, with 10 μM EdU added for the last hour (FIG. 14A). Cells were collected and fixed in 1% paraformaldehyde. Cells were incubated with Pacific blue azide dye as described by Thermo Scientific. Cells were then incubated with FarRed dye and RNase. Cells were analyzed on a BD Celesta and data compiled using FloJo and GraphPad. […] By 18 hours, OVCAR-3 cells were in G2 or reentering G1. Cells appeared to remain somewhat synchronized over 48 hours.
The OVCAR3 human ovarian carcinoma cell line was grown in RPMI-1640/1× Glutamax/1× Insulin/10% fetal bovine serum and was plated at 300,000 cells/well in Corning 6 cm tissue culture treated plates. […] Cells were divided into two sets. The first set was treated for the indicated amount of time, with 10 μM EdU added for the last hour of treatment before being collected. The second set of cells were treated for the indicated amount of time and had EdU added for one hour before the timepoint. Then the media was aspirated, the cells washed, and re-treated with treatment media. The second set of cells was collected at 48 hours, allowing for tracing of the EdU positive cells. Cells were collected and fixed in 1% paraformaldehyde. Cells were incubated with Alexa 488 (A488) azide dye as described by Thermo Scientific. Cells were then incubated with FarRed dye and RNase. Cells were analyzed on a BD Celesta and data compiled using FloJo and GraphPad. […] Several “snap shots” of cells at various timepoints, followed by where the cells from S phase ended up at the end of 48 hours of treatment, were collected. […] It appears that the cells in S phase at after 6 hours of treatment are arresting in G1 (FIG. 15B). At 24 hours of treatment, little to no cells were in S phase so there were no cells to trace (FIG. 15C). Although the DMSO sample appears largely different at 48 hours, the distribution appears similar to the DMSO, EdU free cells at 48 hours. […] (FIG. 15D).
Background: In flow cytometry, cells or beads pass a laser one at a time.

The subject of another test is H526 cells. As to the kind of experiment: CellTiter Glo cell proliferation assay (single agent and chemotherapy combination). The class given is cell-based, human. Conditions: Homo sapiens, NCI-H526, 144 h; six days. As to the method:
Plates returned to incubator for six additional days. On day six post dosing, plates were removed and treated with CellTiter Glo reagent following manufacturer's specifications. Plates incubated 45 minutes at room temperature and run on a Biotek luminometer with 1 sec/well detection. Results were converted to Microsoft Excel and transferred to GraphPad Prism for analysis.
Cells were plated at 250 cells per well in white wall/clear bottom plates and incubated overnight. […] Plates returned to the incubator for six additional days. On day six post dosing, plates were removed and treated with CellTiter Glo reagent following manufacturer's specifications. Plates incubated 45 minutes at room temperature and run on a Biotek luminometer with 1 sec/well detection. Results were converted to Microsoft Excel and transferred to GraphPad Prism for analysis.
Dose curves ranged from 300 pM to 10 μM in triplicate and treatments lasted for 6 days. Plates were removed from incubator at each specified timepoint and treated with CellTiter-Glo (Promega, Inc) following manufacturer specifications. Plates were then read on CLARIOstar luminometer with 1 sec/well integration.
Dose curves ranged from 300 pM to 10 μM in triplicate and treatments lasted for 6 days. Plates were removed from incubator at each specified timepoint and treated with CellTiter-Glo (Promega, Inc) following manufacturer specifications. Plates were then read on CLARIOstar luminometer with 1 sec/well integration. Results were converted to Microsoft Excel and transferred to GraphPad Prism for Analysis.

Test [3] relates to caspase 3/7 in H526 cells. Kind of test: CaspaseGlo-3/7 activation. Type of test: cell-based, human. Conditions: for IC50: Homo sapiens. As to the method:
Plates were removed from incubator and treated with CaspaseGlo-3/7 (Promega, Inc) following manufacturer specifications. Plates were then read on a Biotech luminometer with 1 sec/well integration. Results were converted to Microsoft Excel and transferred to GraphPad Prism for Analysis (FIG. 22D).
Plates were removed from the incubator at each specified timepoint and treated with CaspaseGlo-3/7 (Promega, Inc) following manufacturer specifications. Plates were then read on Biotech luminometer with 1 sec/well integration. Results were converted to Microsoft Excel and transferred to GraphPad Prism for Analysis (FIG. 27A-C).

Each structure is given as a SMILES string.

For `COCc1cc(C(=O)Nc2cc([C@H]3CC[C@@H](OC(=O)NC(C)C)C3)[nH]n2)n(C)n1` [PF-07104091, reference compound], the IC50 with OVCAR-3 cells [1] worked out at 294 nM; with FUOV-1 cells, 80 nM; in the test on H526 cells, 305 nM; in test [3] (NCI-H526, 48 h, 48 hours), 1250 nM; in test [3] (NCI-H526, 72 h, 72 hours) it was 495 nM. Further, in the test with OVCAR-3 cells [2], the “G1 arrest over 48 h” value was “appears to hold cells in G1 over 48 hours”. Besides, the “caspase 3/7 activation” value in test [3] (24 hours) is recorded as “no appreciable caspase 3/7 activation”.

Usually IC50 stands for the midpoint of a concentration-inhibition curve.
